Measured values as given in US8049013B2, “5- [4-(azetidin-3-yloxy)-phenyl]-2-phenyl-5H-thiazolo[5,4-C] pyridin-4-one derivatives and their use as MCH receptor antagonists” (Eli Lilly and Company, priority 2006, dated 2011).
pKi: −log10 of the molar value. Counter-ions that a name gives are not always drawn. One block for each compound: values may come before it.

Columns and labels:
human MCHR1 [1] = molecular target: T1, human MCHR1 (Homo sapiens, UniProt Q99705); experiment: Functional GTPγ35S binding assay: inhibition of MCH-stimulated GTPγ35S binding to membranes of AV-12 cells expressing human MCHR1; assay type: biochemical; conditions: Kb from IC50 by modified Cheng-Prusoff (Leff and Dougal)
T1 construct: expressed in transfected cells; host or cells: AV-12 cells (clone 43), membranes
Text: (§1) One of skill in the art is able to perform both the ^125I-MCH binding and functional GTPγ^35S binding assays using the procedures herein or procedures disclosed in the art. For binding assay, see for example, Macdonald, D., et al., 2000. Molecular characterization of the melanin-concentrating hormone/receptor complex: identification of critical residues involved in binding and activation. Mol Pharmacol 58, 217-225. For GTPgammaS functional assay, see for example, Gao, X., et al., 2004. Europium-labeled melanin-concentrating hormone analogues: ligands for measuring binding to melanin-concentrating hormone receptors 1 and 2. Anal Biochem 328, 187-195.
Functional antagonism of MCH activity is assessed by measuring the ability of a test compound to inhibit MCH-stimulated binding of GTPγ^35S to membranes isolated from AV-12 cells expressing the human MCHR1 using a scintillation proximity assay. […] After verifying competitive antagonism by Schild analysis, Kb values are calculated from the IC50 values for each antagonist and the EC50 for MCH (determined independently) using a modification of the Cheng-Prusoff approximation as described by Leff and Dougal (Trends Pharmacol. Sci. (1993) 14: 110-112). […]

[2] = In vivo efficacy in diet-induced obese male Long-Evans rats, oral gavage once a day for 3 days; conditions: 10 mg/Kg oral
Protocol: Animals are housed individually in a temperature regulated room (24° C.) with a reverse 12 hour light/dark cycle (dark 10:00/22:00). Water and food (Teklad 95217, Harlan, Wis.) were available ad libitum. Compounds are administered orally in a vehicle that consists of 10% acacia and 0.15% saccharin in water once a day before onset of the dark period for 3 days. Food intake and body weight are measured daily for the 3 day period. The compound of Example 29 produces an average body weight reduction of about 7 grams at a dose of 10 mg/Kg when compared to vehicle control.

human MCHR1 [3] = molecular target: T1, human MCHR1; experiment: 125I-MCH competitive binding assay (scintillation proximity), membranes of AV-12 cells transfected with human MCHR1; conditions: Ki calculated from IC50 by Cheng-Prusoff, average
Text: as §1
Binding of compounds to MCHR1 is assessed in a competitive binding assay employing ^125I-MCH, compound of the invention, and clone 43 membranes using scintillation proximity techniques. IC50 values (defined as the concentration of test compound required to reduce specific binding of ^125I-MCH by 50%) are determined by fitting the concentration-response data to a 4-parameter model (max response, min response, Hill coefficient, IC50) using a spreadsheet.

T1 sequence (Q99705 whole entry): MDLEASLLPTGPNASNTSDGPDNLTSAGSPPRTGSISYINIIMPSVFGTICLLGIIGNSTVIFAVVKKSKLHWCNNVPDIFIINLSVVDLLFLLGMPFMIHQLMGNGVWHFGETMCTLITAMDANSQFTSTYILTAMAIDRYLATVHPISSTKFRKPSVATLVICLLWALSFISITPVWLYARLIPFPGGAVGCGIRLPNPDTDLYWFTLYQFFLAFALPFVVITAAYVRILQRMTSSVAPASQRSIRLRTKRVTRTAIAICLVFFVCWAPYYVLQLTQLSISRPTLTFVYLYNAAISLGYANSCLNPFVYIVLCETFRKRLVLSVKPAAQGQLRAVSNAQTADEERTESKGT

Kb (human MCHR1 [1]): ~6 nM
SMILES: COc1cc(N2CCc3nc(-c4ccc(Cl)cc4)sc3C2=O)ccc1OC1CN(C(C)C)C1 [Example 28, 2-(4-Chloro-phenyl)-5-[4-(1-isopropyl-azetidin-3-yloxy)-3-methoxy-phenyl]-6,7-dihydro-5H-thiazolo[5,4-c]pyridin-4-one, hydrochloride salt]

SMILES: COc1cc(N2CCc3nc(-c4ccc(Cl)cc4)sc3C2=O)ccc1OC1CN(C2CCC2)C1.Cl [Example 29, 2-(4-Chloro-phenyl)-5-[4-(l-cyclobutyl-azetidin-3-yloxy)-3-methoxy-phenyl]-6,7-dihydro-5H-thiazolo[5,4-c]pyridin-4-one, hydrochloride salt]
average body weight reduction when compared to vehicle control [2]: about 7 grams

pKi (human MCHR1 [3]): ~8.40
SMILES: COc1cc(N2CCc3nc(-c4ccc(Cl)cc4)sc3C2=O)ccc1OC1CN(C2CC2)C1 [Example 37, 2-(4-Chloro-phenyl)-5-[4-(1-cyclopropyl-azetidin-3-yloxy)-3-methoxy-phenyl]-6,7-dihydro-5H-thiazolo[5,4-c]pyridin-4-one, hydrochloride salt]
